From US20210069134A1 (priority 2019, published 2021)
Entries after “also recorded” stand apart in the source; their conditions may differ.

Legend:
Type in all cases: in vivo, rat
[1] = tested on: Long Evans Hooded rats; experiment: Elevated Plus Maze (EPM) test after developmental Pb^2+ exposure, acute i.p. drug; conditions: for anxiolytic OTC ratio, sensitivity to drug / EPM track plot and group mean activity (10-min): 43 mg/kg i.p.
[2] = tested on: prelimbic (PrL), infralimbic (IL), orbital ventral frontal (OV), orbital ventro-lateral (OVL), and hippocampal (HP) brain regions; experiment: LC/MS GABA:Neurotransmitter and Taurine:Neurotransmitter ratios in brain sub-regions after the ASST; conditions: male rats, OVL (all four brain regions), taurine co-treatment
Method: Immediately following the ASST, rats were deeply anesthetized using Isoflurane, then sacrificed, and their brains were extracted in cold physiological buffered saline (PBS) pH 7.4 in under 2-min. The rat whole brains were then transferred into a coronal sectioning steel brain matrix for 175-300 g rodents (Stoelting, Inc. Wood Dale, Ill.). […] The collected brain regions were stored at −80° C. until ready for subsequent neurochemical assessments.
The brain sub-regions were then manually homogenized with sterile glass homogenizers (i.e., total volume 3 mL) using a 10 mg/100 μL (1:10) dilution of 100% acetonitrile ([…]) (Sigma-Aldrich, St Louis, Mo.) as a miscible (i.e., fully dissolvable solution) with a dielectric constant to study the separation of chemicals by mass charge and polarity. Post homogenization, samples were sonicated for 30 sec with a pulse on:off time of 10 sec at an amplitude of 20%, then centrifuged at […] for 5-min at 4° C., and the supernatant collected and stored at −20° C. until ready for LC/MS. […] The mass/charge (m/z) values of neurotransmitters were monitored and peak heights were obtained to compare the amount of neurotransmitters within- and between-samples. The elution was performed with a flow rate of 0.2 mL/min and the neurotransmitters that were eluted from the column were detected in the positive ion mode. […]

[3] = tested on: Long Evans Hooded rats; experiment: Attention Set-Shift Test (ASST) after developmental Pb^2+ exposure with taurine co-treatment; conditions: for Pb^2+-induced frontoexecutive dysfunctions (ASST task performance), overall: both sexes, 150 ppm Pb^2+ + 0.05% Taurine co-treatment; for errors-to-criterion (ETC), odor (OD) and digging medium (MD) simple discrimination training / trials-to-criterion (TTC), odor (OD) and digging medium (MD) simple discrimination training: vs Control and Perinatal; for rate-of-learning cumulative record across ASST stages: 150 ppm Pb^2+ + Taurine 0.05%
[4] = female rats, 150 ppm Pb^2+ + 0.05% Taurine
[5] = female rats, 150 ppm Pb^2+ + 0.05% Taurine in drinking water to PND 22
[6] = female rats, 150 ppm Pb^2+ + 0.05% Taurine, most recovery at ED and ED-Rev
[7] = male rats, 150 ppm Pb^2+ + 0.05% Taurine
[8] = male rats, 150 ppm Pb^2+ + 0.05% Taurine in drinking water to PND 22
[9] = male rats, 150 ppm Pb^2+ + 0.05% Taurine in drinking water to PND 22, listed as taurine
[10] = male rats, 150 ppm Pb^2+ + 0.05% Taurine, listed as taurine

NCCC(=O)O [TD-101, 3-aminopropanoic acid]
anxiolytic OTC ratio, sensitivity to drug ([1]; control female rats): most sensitive | anxiolytic OTC ratio, sensitivity to drug ([1]; control male rats): most sensitive

NCS(=O)(=O)O [TD-102]
anxiolytic OTC ratio, sensitivity to drug ([1]; Peri-22 1,000 ppm females): sensitive | anxiolytic OTC ratio, sensitivity to drug ([1]; Peri-22 1,000 ppm male rats): only sensitive | anxiolytic OTC ratio, sensitivity to drug ([1]; control male rats): most sensitive

Nc1ccccc1S(=O)(=O)O [TD-103, 2-aminobenzenesulfonic acid]
anxiolytic OTC ratio, sensitivity to drug ([1]; control female rats): most sensitive

NCCS(=O)(=O)O [Taurine, 2-aminoethanesulfonic acid]
Taurine:Dopamine levels [2]: elevated | Pb^2+-induced frontoexecutive dysfunctions (ASST task performance), overall [3]: recovered these frontoexecutive dysfunctions to levels equivalent to Control rats | Pb^2+-induced frontoexecutive dysfunctions (ASST task performance), overall ([3]; listed as taurine): effective in mitigating or at least reducing most; also recorded: sex-dependent recovery | ETC, reacquisition learning [3, 4]: no differences | TTC, reacquisition learning [3, 4]: no differences | errors-to-criterion (ETC), OD and MD simple discrimination training [3, 5]: no differences | trials-to-criterion (TTC), OD and MD simple discrimination training [3, 5]: no differences | ASST performance, ETC [3, 6]: recovered these deficits to performance levels comparative to Control males; also recorded: recovered ASST performance to rates comparable to Control female rats | ASST performance, TTC [3, 6]: recovered these deficits to performance levels comparative to Control males; also recorded: recovered ASST performance to rates comparable to Control female rats | ETC, reacquisition learning (CD-Reacquisition and ID-Reacquisition) [3, 7]: fewer ETC errors | TTC, reacquisition learning (CD-Reacquisition and ID-Reacquisition) [3, 7]: recovery from the TTC reacquisition learning impairment | errors-to-criterion (ETC), odor (OD) and digging medium (MD) simple discrimination training [3, 8]: significant difficulty in learning | trials-to-criterion (TTC), odor (OD) and digging medium (MD) simple discrimination training [3, 8]: significant difficulty in learning | errors-to-criterion (ETC), odor (OD) and digging medium (MD) simple discrimination training [3, 9]: caused learning delays | trials-to-criterion (TTC), odor (OD) and digging medium (MD) simple discrimination training [3, 9]: caused learning delays | ETC, reacquisition learning (CD-Reacquisition and ID-Reacquisition) [3, 10]: recovered reacquisition learning performance deficits to rates comparable to Control male rats | TTC, reacquisition learning (CD-Reacquisition and ID-Reacquisition) [3, 10]: recovered reacquisition learning performance deficits to rates comparable to Control male rats | ASST performance, ETC ([3]; male rats, 150 ppm Pb^2+ + 0.05% Taurine, most recovery at CD-Rev and ID): recovered these deficits to performance levels comparative to Control males; also recorded: recovered ASST performance to rates comparable to Control male rats | ASST performance, TTC ([3]; male rats, 150 ppm Pb^2+ + 0.05% Taurine, most recovery at CD-Rev, ID, ED): recovered these deficits to performance levels comparative to Control males; also recorded: recovered ASST performance to rates comparable to Control male rats | rate-of-learning cumulative record across ASST stages ([3]; single representative female rat): quicker rate-of-learning with less sequential errors | rate-of-learning cumulative record across ASST stages ([3]; single representative female rat, listed as taurine): significant improvements | rate-of-learning cumulative record across ASST stages ([3]; single representative male rat): quicker rate-of-learning with less sequential errors | rate-of-learning cumulative record across ASST stages ([3]; single representative male rat, listed as taurine): significant improvements | Pb^2+-induced anxiogenic response in the EPM ([1]; 43 mg/Kg i.p. 15-min prior to testing, PND 36-45, both genders): ameliorated in a gender-specific manner | EPM track plot and group mean activity (10-min) ([1]; Control (0 ppm) female rats): increased anxiolytic response | EPM track plot and group mean activity (10-min) ([1]; Control (0 ppm) male rats): increased anxiolytic response
